pIC50: −log10 of the molar value.
Experiments:
[1] = biological target: T1, Prostaglandin G/H synthase 1 (Mus musculus, UniProt P22437); experiment: Inhibition of COX1 in mouse J774 cells assessed as arachidonic acid-induced PGE2 levels by radio immunoassay; format: cell-based
T1 sequence (P22437 whole entry): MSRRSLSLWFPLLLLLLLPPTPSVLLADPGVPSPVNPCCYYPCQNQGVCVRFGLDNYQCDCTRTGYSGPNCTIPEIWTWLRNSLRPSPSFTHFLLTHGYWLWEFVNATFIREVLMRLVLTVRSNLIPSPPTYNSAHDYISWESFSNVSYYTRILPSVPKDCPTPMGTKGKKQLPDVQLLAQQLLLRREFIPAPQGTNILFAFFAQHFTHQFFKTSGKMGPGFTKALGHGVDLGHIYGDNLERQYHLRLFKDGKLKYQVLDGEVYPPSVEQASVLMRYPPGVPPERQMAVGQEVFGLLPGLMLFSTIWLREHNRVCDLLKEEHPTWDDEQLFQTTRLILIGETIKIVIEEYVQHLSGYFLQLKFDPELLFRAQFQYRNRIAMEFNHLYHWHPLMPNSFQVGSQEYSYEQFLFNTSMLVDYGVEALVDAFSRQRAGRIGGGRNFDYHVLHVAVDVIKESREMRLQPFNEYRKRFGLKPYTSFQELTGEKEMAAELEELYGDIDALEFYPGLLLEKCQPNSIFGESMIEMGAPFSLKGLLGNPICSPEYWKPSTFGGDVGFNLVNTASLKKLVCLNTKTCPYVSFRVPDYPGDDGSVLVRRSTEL

[2] = species on record: Mus musculus; experiment: Selectivity ratio of IC50 for mouse COX1 to IC50 for mouse COX2
[3] = biological target: T2, Prostaglandin G/H synthase 2 (Mus musculus, UniProt Q05769)
T2 sequence (Q05769 whole entry): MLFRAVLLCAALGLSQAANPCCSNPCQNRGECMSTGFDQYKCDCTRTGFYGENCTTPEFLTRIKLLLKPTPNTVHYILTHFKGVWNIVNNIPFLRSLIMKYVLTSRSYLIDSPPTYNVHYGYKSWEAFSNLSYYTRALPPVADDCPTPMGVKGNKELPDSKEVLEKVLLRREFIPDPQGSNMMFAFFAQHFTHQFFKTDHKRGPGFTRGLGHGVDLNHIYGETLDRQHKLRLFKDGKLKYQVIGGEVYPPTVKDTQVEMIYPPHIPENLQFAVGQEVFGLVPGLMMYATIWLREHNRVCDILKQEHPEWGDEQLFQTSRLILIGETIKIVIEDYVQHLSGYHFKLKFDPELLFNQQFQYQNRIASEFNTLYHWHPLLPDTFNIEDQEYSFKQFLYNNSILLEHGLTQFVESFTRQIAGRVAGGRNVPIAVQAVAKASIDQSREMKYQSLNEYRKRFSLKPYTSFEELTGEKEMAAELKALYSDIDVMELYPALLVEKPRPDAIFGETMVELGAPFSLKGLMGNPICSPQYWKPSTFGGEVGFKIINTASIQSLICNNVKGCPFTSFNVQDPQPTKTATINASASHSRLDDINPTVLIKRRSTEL
Description: Inhibition of COX2 in LPS-stimulated J774 cells assessed as inhibition of PGE2 levels by radioimmunoassay

[4] = test system: Rattus norvegicus; experiment: Antiinflammatory activity against carrageenan-induced hyperalgesia in rat assessed as paw pressure in rat at 20 mg/kg, po after 30 mins; format: functional
[5] = biological target: T3, Prostaglandin G/H synthase 2 (Homo sapiens, UniProt P35354); experiment: Inhibition of COX2 in LPS-induced monocyte assessed as PGE2 production in human whole blood
T3 sequence (P35354 whole entry): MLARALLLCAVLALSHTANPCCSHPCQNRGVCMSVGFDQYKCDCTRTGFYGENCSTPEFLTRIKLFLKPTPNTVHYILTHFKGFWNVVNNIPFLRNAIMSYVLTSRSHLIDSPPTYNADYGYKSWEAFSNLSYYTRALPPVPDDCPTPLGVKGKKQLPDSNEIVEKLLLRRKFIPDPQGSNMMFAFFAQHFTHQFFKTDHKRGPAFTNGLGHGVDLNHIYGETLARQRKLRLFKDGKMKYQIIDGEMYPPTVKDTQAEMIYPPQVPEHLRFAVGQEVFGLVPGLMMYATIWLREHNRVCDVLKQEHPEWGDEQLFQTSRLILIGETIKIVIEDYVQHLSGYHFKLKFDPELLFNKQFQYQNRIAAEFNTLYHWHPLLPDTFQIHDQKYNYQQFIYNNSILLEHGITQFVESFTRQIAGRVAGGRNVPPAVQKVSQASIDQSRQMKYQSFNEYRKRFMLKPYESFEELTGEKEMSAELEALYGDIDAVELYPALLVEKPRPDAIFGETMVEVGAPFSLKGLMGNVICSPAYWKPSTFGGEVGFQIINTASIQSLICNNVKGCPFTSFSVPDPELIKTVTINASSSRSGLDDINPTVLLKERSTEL

[6] = biological target: Prostaglandin G/H synthase 1 (Homo sapiens, UniProt P23219); experiment: Inhibition of COX1 in human whole blood assessed as TXB2 production; format: tissue-based
[7] = test system: Rattus norvegicus; experiment: Antiinflammatory activity against carrageenan-induced hyperalgesia in rat assessed as paw pressure in rat at 20 mg/kg, po after 60 mins; format: functional
[8] = test system: Mus musculus; experiment: Analgesic activity against acetic acid induced abdominal constriction in Swiss Albino mouse assessed as number of writhings at 10 mg/kg, po after 10 mins; format: functional, Abdomen
[9] = test system: Rattus norvegicus; experiment: Antiinflammatory activity against carrageenan-induced hyperalgesia in rat assessed as paw pressure in rat at 20 mg/kg, po after 120 mins; format: functional
[10] = test system: Rattus norvegicus; experiment: Antiinflammatory activity against carrageenan-induced paw edema in rat at 20 mg/kg, po; format: functional
[11] = test system: Mus musculus; experiment: Analgesic activity against acetic acid induced abdominal constriction in Swiss Albino mouse assessed as number of writhings at 20 mg/kg, po after 10 mins; format: functional, Abdomen

Chain of Prostaglandin G/H synthase 1 (Homo sapiens, UniProt P23219) (P23219 whole entry): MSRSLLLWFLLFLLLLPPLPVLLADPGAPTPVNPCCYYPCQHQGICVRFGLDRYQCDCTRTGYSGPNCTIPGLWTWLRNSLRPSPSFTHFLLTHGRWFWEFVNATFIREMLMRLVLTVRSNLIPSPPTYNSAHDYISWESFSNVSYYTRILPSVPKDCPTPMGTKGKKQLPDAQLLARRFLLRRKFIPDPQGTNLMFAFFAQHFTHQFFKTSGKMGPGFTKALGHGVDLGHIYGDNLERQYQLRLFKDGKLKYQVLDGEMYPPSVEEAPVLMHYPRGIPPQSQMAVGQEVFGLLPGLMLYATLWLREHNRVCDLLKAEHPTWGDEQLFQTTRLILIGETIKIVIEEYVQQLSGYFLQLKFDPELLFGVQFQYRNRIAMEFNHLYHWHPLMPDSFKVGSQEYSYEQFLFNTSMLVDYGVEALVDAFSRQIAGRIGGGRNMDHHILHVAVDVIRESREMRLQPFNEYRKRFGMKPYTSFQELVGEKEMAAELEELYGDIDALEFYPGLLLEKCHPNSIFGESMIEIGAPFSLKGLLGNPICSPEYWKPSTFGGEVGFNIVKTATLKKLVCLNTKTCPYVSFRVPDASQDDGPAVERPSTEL

| pIC50 [1] | Ratio IC50 [2] | pIC50 [3] | SMILES | other results |
| --- | --- | --- | --- | --- |
| < 4.00 | > 5000 | – | CCOC(=O)Cc1cc(-c2ccc(S(C)(=O)=O)cc2)n(-c2ccc(F)c(F)c2)c1C | – |
| < 4.00 | – | – | CCOC(=O)C(=O)c1cc(-c2ccccc2)n(-c2ccc(S(C)(=O)=O)cc2)c1C | – |
| < 4.00 | > 10000 | 8.00 | CCOC(=O)Cc1cc(-c2ccc(S(C)(=O)=O)cc2)n(-c2ccc(F)cc2)c1C | – |
| < 4.00 | > 200 | 6.26 | CCOC(=O)Cc1cc(-c2ccc(OC)cc2)n(-c2ccc(S(C)(=O)=O)cc2)c1C | – |
| < 4.00 | > 12 | 5.08 | CCOC(=O)C(=O)c1cc(-c2ccc(S(C)(=O)=O)cc2)n(-c2ccc(F)c(F)c2)c1C | – |
| < 4.00 | > 100 | 6.05 | CCOC(=O)C(=O)c1cc(-c2ccc(S(C)(=O)=O)cc2)n(-c2cccc(F)c2)c1C | – |
| < 4.00 | – | – | CCOC(=O)C(=O)c1cc(-c2ccc(C(F)(F)F)cc2)n(-c2ccc(S(C)(=O)=O)cc2)c1C | – |
| < 4.00 | > 50 | 5.71 | CCOC(=O)Cc1cc(-c2ccc(C)cc2)n(-c2ccc(S(C)(=O)=O)cc2)c1C | – |
| < 4.00 | > 100 | 6.03 | CCOC(=O)C(=O)c1cc(-c2ccc(S(C)(=O)=O)cc2)n(-c2ccc(OC)cc2)c1C | – |
| < 4.00 | > 250 | 6.40 | CCOC(=O)Cc1cc(-c2ccc(F)cc2)n(-c2ccc(S(C)(=O)=O)cc2)c1C | – |
| < 4.00 | – | – | CCOC(=O)Cc1cc(-c2ccc(C(F)(F)F)cc2)n(-c2ccc(S(C)(=O)=O)cc2)c1C | – |
| < 4.00 | – | – | CCOC(=O)C(=O)c1cc(-c2ccc(F)cc2)n(-c2ccc(S(C)(=O)=O)cc2)c1C | – |
| < 4.00 | – | – | CCOC(=O)C(=O)c1cc(-c2ccc(OC)cc2)n(-c2ccc(S(C)(=O)=O)cc2)c1C | – |
| < 4.00 | > 19 | 5.27 | CCOC(=O)Cc1cc(-c2ccc(F)c(F)c2)n(-c2ccc(S(C)(=O)=O)cc2)c1C | – |
| < 4.00 | – | – | CCOC(=O)C(=O)c1cc(-c2ccc(F)c(F)c2)n(-c2ccc(S(C)(=O)=O)cc2)c1C | – |
| < 4.00 | > 4000 | 7.59 | CCOC(=O)Cc1cc(-c2ccc(S(C)(=O)=O)cc2)n(-c2ccc(OC)cc2)c1C | – |
| < 4.00 | – | – | CCOC(=O)Cc1cc(-c2ccccc2)n(-c2ccc(S(C)(=O)=O)cc2)c1C | – |
| < 4.00 | – | – | CCOC(=O)C(=O)c1cc(-c2ccc(C)cc2)n(-c2ccc(S(C)(=O)=O)cc2)c1C | – |
| < 4.00 | > 9 | 4.96 | CCOC(=O)C(=O)c1cc(-c2ccc(S(C)(=O)=O)cc2)n(-c2ccc(F)cc2)c1C | – |
| < 4.00 | > 10000 | – | CCOC(=O)Cc1cc(-c2ccc(S(C)(=O)=O)cc2)n(-c2cccc(F)c2)c1C | Activity [4]: 55.2 g; pIC50 [5]: 5.68; pIC50 [6]: 4.69; Activity [7]: 49.8 g; Activity [8]: 28.9; Activity [9]: 43.4 g; Activity [10]: 95.5%; Activity [11]: 15.7 |

Reference: ChEMBL document CHEMBL1137573, “Cyclooxygenase-2 inhibitors. 1,5-diarylpyrrol-3-acetic esters with enhanced inhibitory activity toward cyclooxygenase-2 and improved cyclooxygenase-2/cyclooxygenase-1 selectivity” (J Med Chem, 2007)
